Several values for one entry are separate records, joined by “and”; a condition that tells them apart may be missing. Identical values can stand only once. Toxic doses and inconclusive results are not listed.
Tested on: BDF1 mice, P388 leukemia ip, median survival T/C
Experiment: NCI In Vivo Anticancer Drug Screen. Data for tumor model P388 Leukemia (intraperitoneal) in B6D2F1 (BDF1) mice
Conditions: endpoint: median survival time, higher = longer survival
Procedure, shortened: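 T/C = treated-group survival ÷ vehicle-control survival; tumour transplanted into mice before dosing.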

[1] = dose: 100.0 mg/kg/injection, schedule: Q04DX003 (ip), vehicle: saline with Tween-80
[2] = dose: 200.0 mg/kg/injection, schedule: Q04DX003 (ip), vehicle: saline with Tween-80
[3] = dose: 400.0 mg/kg/injection, schedule: Q04DX003 (ip), vehicle: saline with Tween-80
[4] = dose: 100.0 mg/kg/injection, schedule: Q04DX002 (ip), vehicle: saline with Tween-80
[5] = dose: 200.0 mg/kg/injection, schedule: Q04DX002 (ip), vehicle: saline with Tween-80

With `O=[N+]([O-])c1ccc2c3c(cccc13)-c1ccccc1-2` the T/C (dose: 100.0 mg/kg/injection, schedule: Q01DX009 (ip), vehicle: Klucel (hydroxypropylcellulose) (HPC)) was 110 % of control, the T/C (dose: 100.0 mg/kg/injection, schedule: Q04DX003 (ip), vehicle: Klucel (hydroxypropylcellulose) (HPC)) was 90 % of control and the T/C (dose: 200.0 mg/kg/injection, schedule: Q01DX009 (ip), vehicle: Klucel (hydroxypropylcellulose) (HPC)) was 105 % of control. For the same molecule, the T/C (dose: 200.0 mg/kg/injection, schedule: Q04DX003 (ip), vehicle: Klucel (hydroxypropylcellulose) (HPC)) was 95 % of control, the T/C (dose: 400.0 mg/kg/injection, schedule: Q01DX009 (ip), vehicle: Klucel (hydroxypropylcellulose) (HPC)) was 100 % of control and the T/C (dose: 400.0 mg/kg/injection, schedule: Q04DX003 (ip), vehicle: Klucel (hydroxypropylcellulose) (HPC)) was 100 % of control.

With `NC(=O)NC1OC(COC(=O)c2ccccc2)C(OC(=O)c2ccccc2)C1OC(=O)c1ccccc1` (centres undefined) the T/C (dose: 50.0 mg/kg/injection, schedule: Q04DX003 (ip), vehicle: saline with Tween-80) was 107 % of control, the T/C [1] was 90 % of control and 96 % of control and the T/C [2] was 93 % of control. The T/C [3] was 87 % of control and 90 % of control.

For `CC(=O)CC(C)=O.CC(=O)CC(C)=O.Cc1c[nH]cn1.O=N[O-].[Co]`, the T/C [4] was 107 % of control and the T/C [5] was 124 % of control.

`CCOC(=S)N/N=C(\C)CC` was tested, and the T/C (dose: 2.5 mg/kg/injection, schedule: Q01DX009 (ip), vehicle: saline with Tween-80) was 93 % of control and the T/C (dose: 5.0 mg/kg/injection, schedule: Q01DX009 (ip), vehicle: saline with Tween-80) was 93 % of control.

With `COc1cccc(CCC(=O)O)c1` the T/C (dose: 100.0 mg/kg/injection, schedule: Q04DX003 (ip), vehicle: gum acacia) was 100 % of control, the T/C (dose: 200.0 mg/kg/injection, schedule: Q04DX003 (ip), vehicle: gum acacia) was 104 % of control and the T/C (dose: 400.0 mg/kg/injection, schedule: Q04DX003 (ip), vehicle: gum acacia) was 113 % of control.

In the case of `CCCN=C(N)c1ccc(N=C(N)c2ccc(N=C(N)c3ccc(C(N)=NCCC)cc3)cc2)cc1`, the T/C (dose: 10.0 mg/kg/injection, schedule: Q01DX009 (ip), vehicle: saline) is reported as 154 % of control and the T/C (dose: 15.0 mg/kg/injection, schedule: Q01DX009 (ip), vehicle: saline) is reported as 190 % of control.

`O=C1c2cccnc2C(=O)N1Cc1ccccc1` was tested, and the T/C (dose: 9.38 mg/kg/injection, schedule: Q01DX009 (ip), vehicle: saline with Tween-80) was 109 % of control, the T/C (dose: 18.7 mg/kg/injection, schedule: Q01DX009 (ip), vehicle: saline with Tween-80) was 95 % of control and the T/C (dose: 37.5 mg/kg/injection, schedule: Q01DX009 (ip), vehicle: saline with Tween-80) was 100 % of control.

`CSC1C(=O)Nc2cccc(C#N)c21` (centres undefined) was tested, and the T/C (dose: 50.0 mg/kg/injection, schedule: Q04DX002 (ip), vehicle: saline with Tween-80) was 102 % of control, the T/C [4] was 98 % of control and the T/C [5] was 102 % of control.

In the case of `SC1(S)CN2CCC1CC2`, the T/C (dose: 6.25 mg/kg/injection, schedule: Q04DX003 (ip), vehicle: saline) is reported as 105 % of control, the T/C (dose: 12.5 mg/kg/injection, schedule: Q04DX003 (ip), vehicle: saline) is reported as 105 % of control and the T/C (dose: 25.0 mg/kg/injection, schedule: Q04DX003 (ip), vehicle: saline) is reported as 105 % of control.

In the case of `c1ccc(CSc2ncnc3nc[nH]c23)cc1`, the T/C (dose: 12.5 mg/kg/injection, schedule: Q01DX010 (ip), vehicle: saline) is reported as 100 % of control, the T/C (dose: 25.0 mg/kg/injection, schedule: Q01DX010 (ip), vehicle: saline) is reported as 100 % of control and the T/C (dose: 50.0 mg/kg/injection, schedule: Q01DX010 (ip), vehicle: saline) is reported as 100 % of control. The T/C (dose: 100.0 mg/kg/injection, schedule: Q01DX010 (ip), vehicle: saline) was 100 % of control.

For `CCN(CC)CCNc1ccc(C)c2sc3ccccc3c(=O)c12` (tested in a mixture with another compound), the T/C (dose: 5.5 mg/kg/injection, schedule: Q01DX009 (ip), vehicle: saline) was 100 % of control and 121 % of control, the T/C (dose: 8.2 mg/kg/injection, schedule: Q01DX009 (ip), vehicle: saline) was 90 % of control and 110 % of control and the T/C (dose: 22.0 mg/kg/injection, schedule: Q01DX009 (ip), vehicle: saline) was 122 % of control. For the same molecule, the T/C (dose: 33.0 mg/kg/injection, schedule: Q01DX009 (ip), vehicle: saline) was 110 % of control, the T/C (dose: 35.0 mg/kg/injection, schedule: Q01DX009 (ip), vehicle: saline) was 116 % of control and the T/C (dose: 50.0 mg/kg/injection, schedule: Q01DX009 (ip), vehicle: saline) was 154 % of control. The T/C (dose: 75.0 mg/kg/injection, schedule: Q01DX009 (ip), vehicle: saline) was 154 % of control and 180 % of control, the T/C (dose: 88.0 mg/kg/injection, schedule: Q04DX003 (ip), vehicle: saline) was 122 % of control and the T/C (dose: 100.0 mg/kg/injection, schedule: Q04DX003 (ip), vehicle: alcohol) was 94 % of control. The T/C (dose: 100.0 mg/kg/injection, schedule: Q04DX003 (ip), vehicle: saline) was 116 % of control, the T/C (dose: 200.0 mg/kg/injection, schedule: Q04DX003 (ip), vehicle: alcohol) was 111 % of control and the T/C (dose: 200.0 mg/kg/injection, schedule: Q04DX003 (ip), vehicle: saline) was 166 % of control. For the same molecule, the T/C (dose: 300.0 mg/kg/injection, schedule: Q04DX003 (ip), vehicle: saline) was 95 % of control and the T/C (dose: 400.0 mg/kg/injection, schedule: Q04DX003 (ip), vehicle: alcohol) was 111 % of control.

In the case of `CN(C)c1ccc(N=C2C=CC(=O)C=C2)cc1`, the T/C (dose: 3.13 mg/kg/injection, schedule: Q01DX009 (ip), vehicle: saline with Tween-80) is reported as 107 % of control, the T/C (dose: 6.25 mg/kg/injection, schedule: Q01DX009 (ip), vehicle: saline with Tween-80) is reported as 112 % of control and 117 % of control and the T/C (dose: 12.5 mg/kg/injection, schedule: Q01DX009 (ip), vehicle: saline with Tween-80) is reported as 110 % of control and 117 % of control. For the same molecule, the T/C (dose: 25.0 mg/kg/injection, schedule: Q01DX009 (ip), vehicle: saline with Tween-80) was 118 % of control.

In the case of `CCOC(=O)C1CSCC1=O` (centres undefined), the T/C (dose: 12.5 mg/kg/injection, schedule: Q01DX009 (ip), vehicle: water) is reported as 113 % of control, the T/C (dose: 25.0 mg/kg/injection, schedule: Q01DX009 (ip), vehicle: water) is reported as 113 % of control and the T/C (dose: 50.0 mg/kg/injection, schedule: Q01DX009 (ip), vehicle: water) is reported as 98 % of control. For the same molecule, the T/C (dose: 100.0 mg/kg/injection, schedule: Q01DX009 (ip), vehicle: water) was 104 % of control, the T/C (dose: 200.0 mg/kg/injection, schedule: Q01DX009 (ip), vehicle: water) was 95 % of control and the T/C (dose: 200.0 mg/kg/injection, schedule: Q04DX003 (ip), vehicle: water) was 101 % of control. For the same molecule, the T/C (dose: 300.0 mg/kg/injection, schedule: Q04DX003 (ip), vehicle: water) was 117 % of control, the T/C (dose: 400.0 mg/kg/injection, schedule: Q01DX009 (ip), vehicle: water) was 101 % of control and the T/C (dose: 400.0 mg/kg/injection, schedule: Q04DX003 (ip), vehicle: water) was 106 % of control.

With `CC(=O)C[P+](c1ccccc1)(c1ccccc1)c1ccccc1` the T/C (dose: 100.0 mg/kg/injection, schedule: Q01DX001 (ip), vehicle: saline) was 109 % of control.

In the case of `C=CC(OC(C)=O)OC(C)=O`, the T/C (dose: 6.0 mg/kg/injection, schedule: Q01DX009 (ip), vehicle: saline with Tween-80) is reported as 104 % of control, the T/C (dose: 8.0 mg/kg/injection, schedule: Q01DX009 (ip), vehicle: saline with Tween-80) is reported as 115 % of control and the T/C (dose: 12.0 mg/kg/injection, schedule: Q01DX009 (ip), vehicle: saline with Tween-80) is reported as 111 % of control. The T/C (dose: 12.5 mg/kg/injection, schedule: Q04DX003 (ip), vehicle: saline with Tween-80) was 108 % of control, the T/C (dose: 18.0 mg/kg/injection, schedule: Q01DX009 (ip), vehicle: saline with Tween-80) was 100 % of control and the T/C (dose: 25.0 mg/kg/injection, schedule: Q04DX003 (ip), vehicle: saline with Tween-80) was 117 % of control.

With `COc1ccc(CNCCNCc2ccc(OC)c(OC)c2)cc1OC` the T/C [1] was 115 % of control, the T/C [2] was 105 % of control and the T/C [3] was 110 % of control.
